Experimental data reported in the NIST ThermoML archive (doi:10.1016/j.fluid.2005.07.017).

Test: xn = mol fraction of the nth substance listed
Conditions: Liquid, Vibrating tube method

c1ccsc1 [thiophene] + O=C=O
Conditions | mass density [kg/m3]
332.85 K, 13009 kPa, x2 = 0.199 | 1012.87
332.85 K, 13971 kPa, x2 = 0 | 1030.09
332.85 K, 14005 kPa, x2 = 0.199 | 1014.1
332.85 K, 15006 kPa, x2 = 0 | 1031.04
332.85 K, 15042 kPa, x2 = 0.199 | 1015.31
332.85 K, 15990 kPa, x2 = 0 | 1032.01
332.85 K, 16037 kPa, x2 = 0.199 | 1016.53
332.85 K, 17034 kPa, x2 = 0.199 | 1017.71
332.85 K, 17050 kPa, x2 = 0 | 1033.03
332.85 K, 17976 kPa, x2 = 0 | 1033.88
332.85 K, 18013 kPa, x2 = 0.199 | 1018.85
332.85 K, 19004 kPa, x2 = 0.199 | 1019.98
332.85 K, 19018 kPa, x2 = 0 | 1034.92
332.85 K, 20016 kPa, x2 = 0.199 | 1021.13
332.93 K, 10438 kPa, x2 = 0.9217 | 603.48
332.93 K, 11001 kPa, x2 = 0.9217 | 635.42
332.93 K, 12001 kPa, x2 = 0.9217 | 673.08
332.93 K, 13005 kPa, x2 = 0.9217 | 700.08
332.93 K, 13949 kPa, x2 = 0.9217 | 720.24
332.93 K, 15012 kPa, x2 = 0.9217 | 738.73
332.93 K, 16019 kPa, x2 = 0.9217 | 754.17
332.93 K, 17014 kPa, x2 = 0.9217 | 767.1
332.93 K, 18009 kPa, x2 = 0.9217 | 778.74
332.93 K, 18964 kPa, x2 = 0.9217 | 789.26
332.93 K, 20027 kPa, x2 = 0.9217 | 798.89
332.93 K, 21018 kPa, x2 = 0.9217 | 807.65
332.93 K, 22031 kPa, x2 = 0.9217 | 815.99
332.93 K, 23019 kPa, x2 = 0.9217 | 823.51
332.93 K, 23954 kPa, x2 = 0.9217 | 830.07
332.93 K, 25005 kPa, x2 = 0.9217 | 836.64
332.96 K, 6987 kPa, x2 = 0.3818 | 977.03
332.96 K, 8041 kPa, x2 = 0.3818 | 979.02
332.96 K, 9012 kPa, x2 = 0.3818 | 980.85
332.96 K, 10018 kPa, x2 = 0.3818 | 982.65
332.96 K, 11007 kPa, x2 = 0.3818 | 984.44
332.96 K, 12018 kPa, x2 = 0.3818 | 986.2
332.96 K, 13030 kPa, x2 = 0.3818 | 987.96
332.96 K, 13998 kPa, x2 = 0.3818 | 989.61
332.96 K, 14969 kPa, x2 = 0.3818 | 991.25
332.96 K, 16045 kPa, x2 = 0.3818 | 993.04
332.96 K, 17024 kPa, x2 = 0.3818 | 994.61
332.96 K, 18020 kPa, x2 = 0.3818 | 996.22
332.96 K, 19050 kPa, x2 = 0.3818 | 997.85
333.04 K, 9091 kPa, x2 = 0.6996 | 929.67
333.04 K, 10017 kPa, x2 = 0.6996 | 932.84
333.04 K, 11036 kPa, x2 = 0.6996 | 936.19
333.04 K, 11989 kPa, x2 = 0.6996 | 939.22
333.04 K, 13024 kPa, x2 = 0.6996 | 942.4
333.04 K, 14004 kPa, x2 = 0.6996 | 945.28
333.04 K, 14904 kPa, x2 = 0.6996 | 947.84
333.04 K, 16043 kPa, x2 = 0.6996 | 951.03
333.04 K, 17013 kPa, x2 = 0.6996 | 953.62
333.04 K, 18048 kPa, x2 = 0.6996 | 956.36
333.04 K, 19011 kPa, x2 = 0.6996 | 958.88
333.15 K, 101 kPa, x2 = 0 | 1014.58
342.66 K, 5097 kPa, x2 = 0.199 | 988.63
342.66 K, 6031 kPa, x2 = 0.199 | 989.99
342.66 K, 7084 kPa, x2 = 0.199 | 991.48
342.66 K, 8010 kPa, x2 = 0.199 | 992.78
342.66 K, 9020 kPa, x2 = 0.199 | 994.19
342.66 K, 10077 kPa, x2 = 0.199 | 995.61
342.66 K, 11049 kPa, x2 = 0.199 | 996.93
342.66 K, 11932 kPa, x2 = 0.199 | 998.15
342.66 K, 13009 kPa, x2 = 0.199 | 999.54
342.66 K, 13997 kPa, x2 = 0.199 | 1000.84
342.66 K, 14996 kPa, x2 = 0.199 | 1002.14
342.66 K, 16043 kPa, x2 = 0.199 | 1003.48
342.66 K, 17018 kPa, x2 = 0.199 | 1004.66
342.66 K, 18018 kPa, x2 = 0.199 | 1005.93
342.66 K, 19016 kPa, x2 = 0.199 | 1007.17
342.66 K, 20032 kPa, x2 = 0.199 | 1008.42
342.69 K, 9071 kPa, x2 = 0.5661 | 923.94
342.69 K, 10000 kPa, x2 = 0.5661 | 926.85
342.69 K, 11013 kPa, x2 = 0.5661 | 929.94
342.69 K, 11994 kPa, x2 = 0.5661 | 932.85
342.69 K, 13024 kPa, x2 = 0.5661 | 935.81
342.69 K, 13996 kPa, x2 = 0.5661 | 938.48
342.69 K, 15008 kPa, x2 = 0.5661 | 941.2
342.69 K, 16016 kPa, x2 = 0.5661 | 943.82
342.69 K, 17021 kPa, x2 = 0.5661 | 946.37
342.69 K, 18030 kPa, x2 = 0.5661 | 948.87
342.69 K, 19004 kPa, x2 = 0.5661 | 951.23
342.77 K, 1039 kPa, x2 = 0 | 1004.75
342.77 K, 2072 kPa, x2 = 0 | 1005.93
342.77 K, 3033 kPa, x2 = 0 | 1007.02
342.77 K, 4023 kPa, x2 = 0 | 1008.17
342.77 K, 5027 kPa, x2 = 0 | 1009.26
342.77 K, 6033 kPa, x2 = 0 | 1010.36
342.77 K, 7008 kPa, x2 = 0 | 1011.44
342.77 K, 7998 kPa, x2 = 0 | 1012.5
342.77 K, 9005 kPa, x2 = 0 | 1013.59
342.77 K, 10000 kPa, x2 = 0 | 1014.65
342.77 K, 10963 kPa, x2 = 0 | 1015.65
342.77 K, 12009 kPa, x2 = 0 | 1016.72
342.77 K, 13023 kPa, x2 = 0 | 1017.82
342.77 K, 13928 kPa, x2 = 0 | 1018.74
342.77 K, 15009 kPa, x2 = 0 | 1019.83
342.77 K, 15998 kPa, x2 = 0 | 1020.79
342.77 K, 17025 kPa, x2 = 0 | 1021.8
342.77 K, 17995 kPa, x2 = 0 | 1022.8
342.77 K, 19013 kPa, x2 = 0 | 1023.79
342.77 K, 20001 kPa, x2 = 0 | 1024.73
342.91 K, 7074 kPa, x2 = 0.3818 | 959.84
342.91 K, 7993 kPa, x2 = 0.3818 | 961.78
342.91 K, 8982 kPa, x2 = 0.3818 | 963.81
342.91 K, 10027 kPa, x2 = 0.3818 | 965.93
